Assay results reported in publication PMC4604124, “In Vitro Characterization of the Pharmacological Properties of the Anti-Cancer Chelator, Bp4eT, and Its Phase I Metabolites” (PLoS ONE, 2015).
“And” between values parts separate entries of the source, which are not always exact repeats. Equal entries are not always repeated.

Columns and labels:
[1] = test system: caspase 9; test: Caspase activity, luminescent kit, caspase 9; format: cell-based, human; settings: for kaspáza 9, raw signal / kaspáza 9, signal / viabilita: individual experiments by date; for kaspáza 9, raw signal, průměry / kaspáza 9, % kontroly / kaspáza 9, signal / viabilita, průměry: mean; for kaspáza 9, % kontroly / kaspáza 9, signal / viabilita / kaspáza 9, signal / viabilita, průměry: normalised to viability
Experimental: (§1) To assess the effect of the compounds on caspase activity, MCF-7 cells were incubated with 100 nM Bp4eT or its metabolites for 3, 24 or 72 h/37°C in 96-well plates, as described above. The cells were then lysed by adding 100 μL of cold lysis buffer (100 mM HEPES, 10 mM CHAPS, 10 mM D-L-dithiothreitol, pH 7.4) to 100 μL of medium in each well. Lysates were immediately frozen at -80°C. Thawed lysates were used to assess caspase activity using luminescent kits for caspases 3/7, 8 and 9 (Promega, Madison, WI, USA). The luminescence was measured using the Tecan Infinite 200M plate reader. Caspase activity in the experimental groups was corrected according to the cellular viability of each group and expressed as a percentage of activity of the untreated control (100%).

[2] = Viability (viabilita) used to normalise caspase activity; format: cell-based, human; settings: human, MCF-7 cells, kontrola = 100;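 note: compound tested at 100 nM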
Text: Supplement pone.0139929.s002.zip/caspases activity.xlsx, sheet "results_viability"

[3] = test system: caspase 8; test: Caspase activity, luminescent kit, caspase 8; format: cell-based, human; settings: for kaspáza 8, raw signal / kaspáza 8, signal / viabilita: individual experiments by date; for kaspáza 8, raw signal, průměry / kaspáza 8, % kontroly / kaspáza 8, signal / viabilita, průměry: mean; for kaspáza 8, % kontroly / kaspáza 8, signal / viabilita / kaspáza 8, signal / viabilita, průměry: normalised to viability
Experimental: as §1

[4] = Ascorbate oxidation assay (redox activity of iron complexes); format: biochemical;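 for %Fe 30min (ascorbate oxidation, Fe = 100%), průměr (mean): IBE 1 means iron-binding equivalents giving fully coordinated iron-chelator complexes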;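 for %Fe 30min: ascorbate oxidation as % of the Fe control (Fe 100%): IBE 0.1 means iron-binding equivalents with iron in excess over chelator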

## CCNC(=O)NN=C(c1ccccc1)c1ccccn1 [Z-Bp4eS, 2-benzoylpyridine 4-ethylsemicarbazone]
[1]; 3 hodiny
  kaspáza 9, raw signal: 6118 and 2344.5 and 3460 and 2039.5
  kaspáza 9, raw signal, průměry: 3490.5
  kaspáza 9, % kontroly: 100.62 % kontroly
  kaspáza 9, signal / viabilita: 62.8087 and 24.0691 and 35.5211 and 20.938
  kaspáza 9, signal / viabilita, průměry: 35.8342
[1]; 24 hodin
  kaspáza 9, raw signal: 4532 and 2581 and 5427.5 and 4043
  kaspáza 9, raw signal, průměry: 4145.88
  kaspáza 9, % kontroly: 101.82 % kontroly
  kaspáza 9, signal / viabilita: 45.5674 and 25.9509 and 54.5713 and 40.6507
  kaspáza 9, signal / viabilita, průměry: 41.6851
[1]; 72 hodin
  kaspáza 9, raw signal: 21491.5 and 17542 and 23160 and 18381
  kaspáza 9, raw signal, průměry: 20143.6
  kaspáza 9, % kontroly: 100.13 % kontroly
  kaspáza 9, signal / viabilita: 229.757 and 187.535 and 247.595 and 196.504
  kaspáza 9, signal / viabilita, průměry: 215.348
[2]; 3 hodiny
  viability at 3 h, 100 nM: 97.4%
[2]; 24 hodin
  viability at 24 h, 100 nM: 99.5%
[2]; 72 hodin
  viability at 72 h, 100 nM: 93.5%
[3]; 3 hodiny
  kaspáza 8, raw signal: 1943.5 and 1086.5 and 1152 and 914.5
  kaspáza 8, raw signal, průměry: 1274.12
  kaspáza 8, % kontroly: 95.08 % kontroly
  kaspáza 8, signal / viabilita: 19.9524 and 11.1542 and 11.8267 and 9.388
  kaspáza 8, signal / viabilita, průměry: 13.0804
[3]; 24 hodin
  kaspáza 8, raw signal: 1728 and 1248 and 1958.5 and 1430.5
  kaspáza 8, raw signal, průměry: 1591.25
  kaspáza 8, % kontroly: 100.61 % kontroly
  kaspáza 8, signal / viabilita: 17.3743 and 12.5481 and 19.6919 and 14.3831
  kaspáza 8, signal / viabilita, průměry: 15.9994
[3]; 72 hodin
  kaspáza 8, raw signal: 6689.5 and 5535.5 and 6778.5 and 5867
  kaspáza 8, raw signal, průměry: 6217.62
  kaspáza 8, % kontroly: 96.15 % kontroly
  kaspáza 8, signal / viabilita: 71.5149 and 59.1779 and 72.4663 and 62.7218
  kaspáza 8, signal / viabilita, průměry: 66.4702
[4]; IBE 0.1, 30 min, mean (průměr)
  %Fe 30min: ascorbate oxidation as % of the Fe control (Fe 100%): 99.02%
[4]; IBE 0.1, time 10, mean (průměr)
  Change of absorbance after subtraction of time 0 (odečet 0): -0.03387
[4]; IBE 0.1, time 20, mean (průměr)
  Change of absorbance after subtraction of time 0 (odečet 0): -0.06534
[4]; IBE 0.1, time 30, mean (průměr)
  Change of absorbance after subtraction of time 0 (odečet 0): -0.09415
[4]; IBE 0.1, čas 0 (time 0), mean (průměr)
  Absorbance (ascorbate, λ = 265 nm): 0.7817
[4]; IBE 0.1, čas 10 (time 10), mean (průměr)
  Absorbance (ascorbate, λ = 265 nm): 0.7478
[4]; IBE 0.1, čas 20 (time 20), mean (průměr)
  Absorbance (ascorbate, λ = 265 nm): 0.7164
[4]; IBE 0.1, čas 30 (time 30), mean (průměr)
  Absorbance (ascorbate, λ = 265 nm): 0.6875
[4]; sheet IBE 1, 30min, Fe 100%, mean
  %Fe 30min (ascorbate oxidation, Fe = 100%), průměr (mean): 102.1%
